Test results published in patent publication US6395787B1, “Ocular hypotensive lipids” (Allergan Sales, Inc., priority 2000, dated 2002).

What was measured:
[1] = test system: rabbit jugular vein segment; assay: Vasorelaxation of histamine precontracted rabbit jugular vein segment
Method: Smooth muscle tension of isolated tissues was measured isometrically with force displacement transducers (Grass FT-03) and recorded on Grass Polygraphs (Models 7G and 79E). The organ baths contained Krebs solution maintained at 37° C. and gassed with 95% 02/5% CO2 to give a pH of 7.4. The Krebs solution had the following composition (mM): NaCl, 118.0; KCl, 4.7; KH2PO4, 1.2; CaCl2, 1.9; MgSO4, 1.18; NaHCO3, 25.0; glucose, 11.7; indomethacin, 0.001.
New Zealand albino rabbit of either sex, weighing 2-4 kg, were injected with 1000 U heparin into the marginal ear vein and then sacrificed by CO2 gas. The external jugular veins were cleared of fat and adherent connective tissue and removed. The veins were transected and each ring of 3-4 mm length was suspended between two metal hooks in a jacketed organ bath. The tissues were equilibrated for 1 hr under 0.75 g tension, which was readjusted as the tissues relaxed. Single doses of histamine, 10^−5 M then 2-3×10^−6 M, with washing after each dose, were given to contract the tissue and establish responsiveness. The TP-receptor antagonist SQ29548, (Ogletree et al. (1985) J. Pharmacol. Exp. Ther. 234 435-441) at (10^−6 M), was applied for 5 min and then histamine 2-3×10^−6 M was added to elicit the contractile response. After 30 min of pretreatment with the histamine, the relaxant response was tested by adding cumulative doses of the test compounds with 10^−8 M to 10^−7 M PGE2 at the end of each dose-response curve as a reference. A recovery period of 30-50 min was allowed after wash-out of the tissues. Relaxant activity was calculated as % of the control tone elicited by histamine.

[2] = target: recombinant feline FP receptor (Felis catus, UniProt A0ABI7XJ69); assay: Ca2+ signal in HEK-293 cells stably transfected with recombinant feline FP receptor; format: cell-based, cat; conditions: HEK-293 cells, recombinant feline FP receptor; read-out: E.C.50, Ca2+ signal
Chain of recombinant feline FP receptor (A0ABI7XJ69 entry or part of it): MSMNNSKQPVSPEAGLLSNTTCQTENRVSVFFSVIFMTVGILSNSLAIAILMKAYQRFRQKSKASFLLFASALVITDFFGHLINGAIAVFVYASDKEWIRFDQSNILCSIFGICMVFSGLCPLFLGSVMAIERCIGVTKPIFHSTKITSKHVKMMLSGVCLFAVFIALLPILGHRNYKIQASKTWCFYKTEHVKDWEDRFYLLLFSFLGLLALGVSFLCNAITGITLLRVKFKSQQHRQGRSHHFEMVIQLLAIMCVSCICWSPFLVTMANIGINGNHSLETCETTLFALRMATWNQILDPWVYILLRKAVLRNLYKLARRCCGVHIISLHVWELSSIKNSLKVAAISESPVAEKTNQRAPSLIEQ
Method: (§1) Human CRL 1497 cells were plated in culture flasks and fed Dulbecco's modified Eagle's medium (DMEM) containing 10% fetal calf serum, 2 mM 1-glutamine, and 0.05 mg/ml gentacin (all purchased from Gibco, Grand Island, N.Y.). Cell cultures were maintained in a humidified atmosphere of 95% air, 5% CO2 and grown to confluency. Cells were removed from the culture flasks by approximately 1 min treatment with trypsin 0.05%/0.53 mM EDTA in Hanks Balanced Salt Solution (HBSS, Gibco, Grand Island, N.Y.) at 37° C. Proteolytic activity was arrested by adding 5 ml of 10% fetal bovine serum in DMEM. The cells were consecutively washed in Hank's BSS and medium containing 140 mM NaCl, […], 1 mM MgCl2, 1.5 mM CaCl2, 10 mM HEPES: TRIS, 5 mM glucose, 5 mM Na pyruvate, 0.1% bovine serum albumin at pH 7.4: Centrifugation for the washes was performed for 15 minutes at 200 g at room temperature. Cells were counted, resuspended in the above medium and incubated with 2×10^−6 M Fura 2/acetoxymethyl ester in a shaking water bath for 30 minutes at 37° C. The cells were subsequently washed in medium as above and resuspended at a concentration of 2×10^6 cells ml^−1. Aliquots of 0.5 ml cell suspension were then added to autocap microtubes to provide 10^6 cells per experimental determination of intracellular free Ca^2+ concentration ([Ca^2+]i).
(§2) Fluorescence was measured in a Perkin-Elmer LS-5 fluorescence spectrophotometer at excitation and emission wavelengths of 340 and 492 nm, respectively, with both slits at 10 nm. For each experimental determination 10^6 cells were washed (200×g for 5 min) and suspended in a 2 ml cuvette with buffer containing 120 mM NaCl, 6 mM KCl, 1 mM MgSO4, 1.5 mM CaCl2, 20 mM HEPES, 1 mg ml^−1 glucose and 1 mg ml^−1 Na pyruvate. Stirring was achieved by an overhead-mounted, paddle stirrer with the temperature maintained at 37° C. The cells were lysed with digitonin (10 μl of 100 mg ml^−1 DMSO) to obtain fmax. EGTA (100 mM) and sufficient 10N NaOH to adjust the pH to 8.5 were then successively added to obtain fmin.
HEK-293 cells were grown in DMEM with 10% fetal bovine serum (FBS), 250 μg ml^−1 G418 (Life Technologies) and 200 μg ml^−1 gentamicin or penicillin/streptomycin. […] For transfection, the cells were grown to 50-60% confluency on 10 cm plates. The plasmid pCEP4 incorporating cDNA inserts for the human FP receptor (20 μg) was added to 500 μl of 250 mM CaCl2. HEPES buffered saline×2 (2×HBSS, 280 mM NaCl, 20 mM HEPES acid, 1.5 mM Na2 HPO4, pH 7.05-7.12) was then added dropwise to a […], with continuous vortexing at room temperature. After 30 min, 9 ml DMEM were added to the mixture. The DNA/DMEM/calcium phosphate mixture was then added to the cells, which had been previously rinsed with 10 ml phosphate buffered saline (PBS). The cells were then incubated for 5 h. at 37° C. in humidified 95% air/5% CO2. The calcium phosphate solution was then removed and the cells were treated with 10% glycerol in DMEM for 2 min. The glycerol solution was then replaced by DMEM with 10% fetal bovine serum (FBS). The cells were incubated overnight and the medium was replaced by DMEM/10% FBS containing 250 μg ml^−1 G418 and penicillin/streptomycin. The following day hygromycin B was added to a final concentration of 200 μg ml^−1.
Ten days after transfection, hygromycin B resistant clones were individually selected and transferred to a separate well on a 24 well plate. […]

human FP receptor = human FP receptor (Homo sapiens, UniProt P43088); assay: Ca2+ signal in CRL 1497 cells; format: cell-based; parameters: endogenous in cells; host or cells: CRL 1497 human dermal fibroblasts; Δ[Ca^2+]i mean χ ± SEM: unit not given here; conditions: CRL 1497 cells, n = 4
Chain of human FP receptor (P43088 whole entry): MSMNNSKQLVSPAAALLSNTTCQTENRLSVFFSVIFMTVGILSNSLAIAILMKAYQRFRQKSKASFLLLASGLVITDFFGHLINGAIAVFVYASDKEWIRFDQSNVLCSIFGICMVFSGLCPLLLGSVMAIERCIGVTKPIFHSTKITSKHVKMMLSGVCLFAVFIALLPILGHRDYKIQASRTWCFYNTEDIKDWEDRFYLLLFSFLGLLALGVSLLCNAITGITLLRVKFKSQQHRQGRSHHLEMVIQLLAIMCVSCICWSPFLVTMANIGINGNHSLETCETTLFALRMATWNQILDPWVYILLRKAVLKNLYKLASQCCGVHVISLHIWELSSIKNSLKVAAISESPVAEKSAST
Method: as §1, §2

intraocular pressure = conditions: prior art research of the assignee; cited from earlier work

Row | EC50 ([1]; Oryctolagus cuniculus, histamine precontracted, read-out: E.C.50, vasorelaxation of the precontracted rabbit jugular vein segment) | EC50 [2] | Δ[Ca^2+]i mean χ ± SEM (human FP receptor; 10^−5 M) | Δ[Ca^2+]i mean χ ± SEM (human FP receptor; 10^−6 M) | Δ[Ca^2+]i mean χ ± SEM (human FP receptor; 10^−7 M) | Δ[Ca^2+]i mean χ ± SEM (human FP receptor; 10^−8 M) | Δ[Ca^2+]i mean χ ± SEM (human FP receptor; 10^−9 M) | Compound | endothelium dependent vasorelaxation ([1]; histamine precontracted rabbit jugular vein segment) | intraocular hypotensive activity (intraocular pressure)
1 | 5.3 nM | 14 nM | 136.7 ± 11.2 | 127.4 ± 7.6 | 124.1 ± 6.5 | 47.7 ± 9.4 | 5.6 ± 2.4 | CCCCC[C@H](O)/C=C/[C@@H]1[C@@H](C/C=C\CCCC(=O)O)[C@@H](O)C[C@H]1O [PGF2α, reference compound] | marked vasorelaxation | 
2 |  |  |  |  |  |  |  | CCCCCC(/C=C/[C@H]1C(O)CC(O)[C@@H]1C/C=C\CCCC(N)=O)OC (stereo partly shown) [prior art compound no. 2] |  | strong intraocular hypotensive activity
3 |  |  |  |  |  |  |  | CCNC(=O)CCC/C=C\C[C@@H]1[C@@H](/C=C/[C@@H](O)CCc2ccccc2)[C@H](O)C[C@@H]1O [prior art compound no. 1] |  | strong intraocular hypotensive activity
